The subject of experiment [1] is GH-RH receptor isoforms on membrane fractions of human PC-3 prostate tumors. The format is binding. The note with it: general statement. An outline of the steps:
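Competitive displacement of [^125I]JV-1-42 from crude membranes of human PC-3 prostate tumours grown as nude-mouse xenografts, with unlabelled peptides at 10^−12 to 10^−6 M. Bound radioactivity in the centrifuged pellet gamma-counted; Ki from Munson–Rodbard analysis. Relative affinity = Ki of reference peptide (JV-1-36 or JV-1-38) / Ki of test antagonist.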

For experiment [2], the system named is PC-3 human prostate cancer xenografts. As to the kind of experiment: PC-3 xenografts in nude mice, Experiment 4: tumor growth. The class given is in vivo. Particulars: for Tumor volume (mm^3) Final / Tumor volume doubling time / Tumor weight / Tumor volume Final (% inhibition) / Tumor weight (% inhibition): 5 μg/day s.c., 28 days; for Tumor volume Final (% inhibition) / Tumor weight (% inhibition): vs control; for Tumor volume (mm^3) Initial: at start of treatment. On the procedure: (§1) Male nude mice were implanted s.c. with 3 mm^3 pieces of PC-3 human hormone-independent prostate cancer tissue on both flanks. When tumors reached a volume of approximately 65 mm^3, the mice were divided into 7 experimental groups with 8 to 9 animals in each group and received single daily injections for 28 days as follows: 1. Control (vehicle solution); 2. JV-1-38 (10 μg/day s.c.); 3. Peptide 35 (10 μg/day s.c.); 4. Peptide 36 (10 μg/day s.c.); 5. Peptide 37 (10 μd/day s.c.); 6. Peptide 39 (10 μg/day s.c.); 7. Peptide 41 (10 μg/day s.c.). Tumor volumes were measured twice a week. The experiment was ended on day 28 by sacrificing the mice under Isofurane anesthesia. Resulting tumors were cleaned, weighed, and snapfrozen until further analyses. Trunk blood was collected from the abdominal aorta and serum was separated for RIA measurement of IGF-I. Statistical analyses of the measurement results were done by ANOVA followed by Fisher test; data are presented as the means±S.E.
(§2) All experimental details of Experiment 4 are the same as for Experiment 3, with the following difference. When tumors reached a volume of approximately 55 mm^3, the mice were divided into 5 experimental groups with 8 to 9 animals in each group and received single daily injections for 28 days as follows: 1. Control (vehicle solution); 2. Peptide 80 (5 μg/day s.c.); 3. Peptide 86 (5 μg/day s.c.); 4. Peptide 95 (5 μg/day s.c.); 5. Peptide 96 (5 μg/day s.c.). Further details of Experiment 4 are the same as for Experiment 3.

For experiment [3] the test system is unchanged. In words: PC-3 xenografts in nude mice, Experiment 2: tumor growth. The class given is in vivo. The procedure:
(§3) Male nude mice were implanted s.c. with 3 mm^3 pieces of PC-3 human hormone-independent prostate cancer tissue on both flanks. When tumors reached a volume of approx. 50 mm^3, the mice were divided into 5 experimental groups with 7 to 8 animals in each group and received single daily injections for 28 days as follows: 1. Control (vehicle solution); 2. JV-1-38 (10 μg/day s.c.); 3 Peptide 31 (10 μg/day s.c.); 4. Peptide 67 (10 μg/day s.c.); 5. Peptide 62 (10 μg/day s.c.). Tumor volumes were measured twice a week. The experiment was ended on day 29 by sacrificing the mice under Isoflurane anesthesia. Resulting tumors were cleaned, weighed, and snap-frozen until further analyses. Trunk blood was collected from the abdominal aorta and serum was separated for RIA measurement of IGF-I. Statistical analyses of the measurement results were done by two-tailed t-test; data are presented as the means±S.E.
(§4) Experiment 2 was similar to Experiment 1, with the difference that Experiment 2 was started when PC-3 tumors had grown to approximately 30 mm^3 in volume. At this time, the animals were divided into 8 experimental groups with 8 animals in each group, and received single daily injections for 28 days as follows. 1. Control (vehicle solution); 2. JV-1-38 (10 μg/day s.c.); 3. Peptide 46 (5 μg/day: s.c.); 4. Peptide 77 (5 μg/day s.c); 5. Peptide 76 (5 μg/day s.c.); 6. Peptide 70 (5 μg/day s.c.); 7 Peptide 79 (5 μg/day s.c.); 8. Peptide 80 (5 μg/day s.c.). Further details of Experiment 2 are the same as for Experiment 1.

Experiment [4] concerns IGF-I. In words: PC-3 xenografts, Experiment 2: serum IGF-I (RIA). The format is in vivo, nude mice. Particulars: 5 μg/day s.c., 28 days.
Description: (§5) For the measurement of GH and IGF-I levels in the serum, as well as IGF-I and IGF-II concentrations in the cytosol fraction of tumors, blood samples and tumor samples were collected and processed as described (Braczkowski R, Schally A V, Plonowski A, Varga J L, Groot K, Krupa M, Armatis P, Cancer 95: 1735-1745, 2002), hereby incorporated by reference. Briefly, blood samples are centrifuged to separate the serum, tumors are homogenized and centrifuged to separate the cytosol fraction. Serum GH is then measured by the double-antibody RIA method. Before measurement by RIA, IGF-I and IGF-II are extracted from serum and cytosol fractions using an acid-ethanol cryoprecipitation method that eliminates most of the IGF binding proteins, which can interfere with the RIA. IGF-I concentration is measured by RIA using IGF-I as a standard and goat anti-IGF-I antibody (both from DSL Inc., Webster, Tex.). IGF-II concentration is measured by RIA using human recombinant IGF-II (Bachem) as a standard and anti-IGF-II monoclonal antibody (Amano International Enzyme, Troy, Va.).
as §3, §4

Experiment [5] deals with IGF-I. As to the kind of experiment: PC-3 xenografts, Experiment 4: serum IGF-I (RIA). The format is in vivo, nude mice. The note with it: 5 μg/day s.c., 28 days; for Serum IGF-I (% inhibition): vs control.
Description: as §5, §1, §2

[6] abbreviates: 5 μg/day s.c., 28 days, vs control.

Data on 4 substances can be found in patent US7452865B2, “Antagonistic analogs of GH RH (2003)” (The Administrare's of the Tulane Educational Fund, priority 2004, dated 2008).

Marks after values point to notes of the source that are not given here.

Consider “[CH3(CH2)6CO-Tyr^1, D-Arg^2, Phe(pCl)^6, Ala^8, His^9, Tyr(Et)^10, His^11, Abu^15, Nle^27, D-Arg^28, Har^29]hGH-RH(1-29)NH2 [Peptide 80]”, for which the “binding affinities to the tumoral receptors for GH-RH (in words)” value (“binding affinities” below) in experiment [1] is listed as “extremely high binding affinities”. Besides, in experiment [2], the “Tumor volume (mm^3) Final” value is recorded as 398 ± 68.7* mm^3, the “Tumor volume doubling time” value stood at 10.7 ± 1.28 days, the “Tumor weight” value was determined as 752 ± 150 mg and the “Tumor volume Final (% inhibition)” value turned out to be 68%. For the same substance, in experiment [2], the “Tumor weight (% inhibition)” value turned out to be 48% and the “Tumor volume (mm^3) Initial” value is recorded as 53.2 ± 10.1 mm^3. For the same substance, the “Tumor volume (mm^3) Initial” value in experiment [3] (5 μg/day groups, at start of treatment) was determined as 24.8 ± 2.2 mm^3. In addition, in experiment [3] (5 μg/day s.c., 28 days), the “Tumor volume (mm^3) Final” value was 128 ± 38.9*# mm^3, the “Tumor volume doubling time” value was determined as 16.7 ± 4.3 days and the “Tumor weight” value came out at 137 ± 46.1 mg. Besides, in experiment [3] (setting [6]), the “Tumor volume Final (% inhibition)” value is recorded as “(64%)” and the “Tumor weight (% inhibition)” value is listed as “(52%)”. Also, the “Serum IGF-I” value with IGF-I [4] amounted to 152 ± 7.83 ng/mL. In the experiment on IGF-I [4] (vs control), the “Serum IGF-I (% inhibition)” value turned out to be 42%. In the experiment on IGF-I [5], the “Serum IGF-I” value came out at 136 ± 15.3 ng/mL and the “Serum IGF-I (% inhibition)” value was 18%.

Take “[CH3(CH2)6CO-Tyr^1, D-Arg^2, Phe(pCl)^6, Ala^8, His^9, Tyr(Et)^10, His^11, Abu^15, His^20, Nle^27, D-Arg^28, Har^29]hGH-RH(1-29)NH2 [Peptide 86]”: in experiment [1], the “binding affinities” value is “extremely high binding affinities”. Further, in experiment [2], the “Tumor volume (mm^3) Final” value is given as 397 ± 71.8* mm^3, the “Tumor volume doubling time” value is reported as 12.1 ± 1.40 days, the “Tumor weight” value is on record as 643 ± 94.9 mg and the “Tumor volume Final (% inhibition)” value turned out to be 68%. For the same substance, in experiment [2], the “Tumor weight (% inhibition)” value is 56% and the “Tumor volume (mm^3) Initial” value was found to be 56.1 ± 8.67 mm^3. In the experiment with IGF-I [5], the “Serum IGF-I” value was found to be 118 ± 8.94 ng/mL and the “Serum IGF-I (% inhibition)” value turned out to be 28%.

For “[CH3(CH2)6CO-Tyr^1, D-Arg^2, Phe(pCl)^6, Ala^8, His^9, Tyr(Et)^10, His^11, Orn^12, Abu^15, Orn^21, Nle^27, D-Arg^28, Har^29]hGH-RH(1-29)NH2 [Peptide 95]”, in experiment [1], the “binding affinities” value is “extremely high binding affinities”. Further, in experiment [2], the “Tumor volume (mm^3) Final” value is 393 ± 79.8* mm^3, the “Tumor volume doubling time” value is 12.5 ± 1.80 days, the “Tumor weight” value is 666 ± 131 mg and the “Tumor volume Final (% inhibition)” value is given as 69%. In experiment [2], the “Tumor weight (% inhibition)” value turned out to be 54% and the “Tumor volume (mm^3) Initial” value is listed as 60.9 ± 12.2 mm^3. For the same substance, in the experiment with IGF-I [5], the “Serum IGF-I” value was 127 ± 17.5 ng/mL and the “Serum IGF-I (% inhibition)” value amounted to 23%.

“[CH3(CH2)6CO-Tyr^1, D-Arg^2, Phe(pCl)^6, Ala^8, His^9, Tyr(Et)^10, His^11, Orn^12, Abu^15, His^20, Orn^21, Nle^27, D-Arg^28, Har^29]hGH-RH(1-29)NH2 [Peptide 96]”: in experiment [1], the “binding affinities” value is on record as “extremely high binding affinities”. The “antitumor effect on PC-3 tumors (in words)” value in experiment [2] (5 μg/day) was “strongest antitumor effect”. In experiment [2], the “Tumor volume (mm^3) Final” value is 301 ± 65.2** mm^3, the “Tumor volume doubling time” value came to 11.0 ± 0.87 days, the “Tumor weight” value is 489 ± 114 mg and the “Tumor volume Final (% inhibition)” value stood at 77%. Besides, in experiment [2], the “Tumor weight (% inhibition)” value is on record as 66% and the “Tumor volume (mm^3) Initial” value came out at 56.2 ± 13.3 mm^3. In the experiment with IGF-I [5], the “Serum IGF-I” value came to 114 ± 15.5 ng/mL and the “Serum IGF-I (% inhibition)” value is reported as 31%.
